Measurements reported in patent US20110224133A1 (University of Southern California, priority 2008, published 2011).
Entries after “also recorded” stand apart in the source; their conditions may differ. Ends that are not written are not given here. Peptide text beside a SMILES is read from it. * marks the point of attachment. Cbz = O=C(OCc1ccccc1)*; CH2F = FC*

What was measured:
TREX-BCBL-Vector cells [1] = experiment: GFP-LC3 puncta autophagy assay in peptide-treated TREX-BCBL cells; details: 30 or 50 μM peptide, 12 hr, 2 μM rapamycin as comparison
TREX-BCBL-Vector cells [2] = experiment: Cell death (BC Z2 CS analyzer) in peptide-treated TREX-BCBL cells; details: identical conditions, 30 or 50 μM peptide
Description: Subsequently, autophagy was quantified as means (±SD) of the combined results from three independent experiments. 2 μM rapamycin treatment was included as a control. For panels B (right), TREX-BCBL-Vector and TREX-BCBL-vFLIP cells were treated with Doxycycline for 24 hr, followed by incubation with 0, 30, or 50 μM of TAT only, the K-α2, or the K-α4 peptide (top), or TAT only, the C-α2, or the C-α4 peptide (bottom) for an additional 12 hr and a BC Z2 CS analyzer used to determine cell death (as a percentage). […] For panel G, various human lymphoma cells were treated with 0, 30, or 50 μM of the K-α2 peptide (left) or the K-α4 peptide (right) for 12 hr and cell death (as a percentage) was determined using a BC Z2 CS Analyzer. For panel H, KSHV-infected BCBL1 cells were incubated with various combinations of rapamycin (25 nM), the K-α2 peptide (20 μM), and the K-α4 peptide (20 μM). A BC Z2 CS Analyzer was used to determine cell numbers (left) and cell death at 6 days (right).
Cells treated with 2 μM rapamycin treatment were included as controls. For panel C, KSHV-infected BCBL1 cells were treated with TAT only, K-α2, K-α2m, K-α4, or K-α4m (30 or 50 μM) for 24 hr. A BC Z2 CS Analyzer was used to determine cell death (as a percentage).

Atg3 [3] = biological target: T1, Atg3 (Homo sapiens, UniProt Q9NT62); experiment: Co-immunoprecipitation and GST pulldown with Atg3 in HEK293T cells; format: binding; details: HEK293T cells, 48 hr post-transfection
T1 construct: expressed in transfected cells; host or cells: HEK293T
Source text: (§1) For panel A, at 48 hr post-transfection with Flag-vFLIP and/or GFP-Atg3 (left) or Flag-vFLIP and/or GST-Atg3 (middle), HEK293T cells were used for immunoprecipitation with αFlag, αGFP, or GST pulldown, followed by immunoblotting with the indicated antibodies. For panel A (right), HEK293T cells transfected with FIag-vFLIP were used for immunoprecipitation with mouse IgG or αFlag, followed by immunoblotting with αAtg3. Panel B (top) depicts a schematic diagram of human Atg3. N,N-terminus; FR, flexible region; C, C-terminus. […] Panel C (top) depicts a schematic diagram of KSHV vFLIP. […] For panel F, NIH3T3-Vector and NIH3T3-vFLIP cells were treated with 2 nM rapamycin for 12 hr and used for IP with αAtg3, followed by immunoblotting with αLC3. In panels A-F, whole cell lysates (WCLs) were used for immunoblotting with the indicated antibodies to show expression.
(§2) WCLs were used for immunoblotting with αFlag or αGST. […] WCLs were used for immunoblotting with αFlag or αGST.
(§3) The ability of FLIP to bind to Atg3 was evaluated by co-immunoprecipitation assay. HEK293T cells were transfected with Flag-vFLIP and/or GFP-Atg3 or Flag-vFLIP and/or GST-Atg3, and at 48 hr post-transfection, cells were harvested and lysed in an NP40 buffer supplemented with complete protease inhibitor cocktail (Roche). After pre-clearing with protein A/G agarose beads for 1 hr at 4° C., whole-cell lysates were used for immunoprecipitation with αFlag, αGFP, or GST. Generally, 1-4 μg of the antibody was added to 1 ml of the cell lysate and incubated at 4° C. for 8 to 12 hr. The immunoprecipitates were then washed extensively with a lysis buffer and eluted by boiling them with an SDS loading buffer for 5 min. Following immunoprecipitation, samples were treated to immunoblot using αAtg3 (1:500) (Novus).
(§4) The overall structure of yeast Atg3 has a unique hammer-like shape with the N-terminal and C-terminal regions discretely responsible for Atg7 and Atg8 (equivalent to mammalian LC3) binding, respectively. (Yamada et al. (2007) J. Biol. Chem. 282:8036-8043). Based on the structure of yeast Atg3, human Atg3 deletion mutants fused with a GST mammalian expression vector were constructed: GST-Atg31-93, GST-Atg3193-268, GST-Atg3268-315, and GST-Atg3193-315.

Beclin1 = Beclin1 siRNA knockdown in BCBL1 cells; format: cell-based, human
Source text: For panel B, BCBL1 cells were transfected with control siRNA or Beclin1 siRNA and treated with or without rapamycin for 5 days.

mTor kinase activity = experiment: Immunoblot of p70S6K and S6 phosphorylation in BCBL1 cells; format: cell-based, human; details: 12 hr, 2 μM rapamycin or 30 μM peptide
Description: WCLs were used for immunoblotting with αp70S6K, αphospho-specific p70S6K, αphospho-specific S6, or αactin. […] WCLs were used for immunoblotting with αFlag or αGST.
Levels of phosphorylation of p70S6K and ribosomal protein S6 in BCBL1 cells were evaluated by immunoblotting with α-p70S6K, αphospho-specific p70S6K, αphospho-specific S6, or αactin.

LC3-II [4] = experiment: Immunoblotting with αLC3 of peptide-treated BCBL1 cells; details: 30 μM each, 12 hr
Description: For panel E, TREX-BCBL-Vector and TREX-BCBL-vFLIP cells were treated with the K-α and the K-α4 (30 μM each) peptide for 12 hr, followed by immunoblotting with αLC3 and αactin.
The K-α2 and K-α4 peptides contained KSHV vFLIP aa20-29 and aa128-139 regions, respectively, as retro-inverso versions to circumvent the proteolytic degradation (FIG. 10 and FIG. 11A). […] Peptide-treated TREX-BCBL-Vector and TREX-BCBL-vFLIP cells were subjected to immunoblotting with αLC3 and αactin.

BCBL1 cells = details: 50 μM zVAD
Description: For panels B-C, TREX-BCBL-Vector and TREX-BCBL-vFLIP cells were mock-treated or treated with 50 μM zVAD (B) or 50 nM rapamycin (C) for indicated amounts of time (days). A BC Z2 CS Analyzer was used to determine the cell numbers (left) and cell death levels (as a percentage) at day 6 (right).
Trypan blue staining and a Beckman Coulter Z2 Particle Count and Size analyzer were used to determine cell death (as a percentage) at day 5.

[5] = system: KSHV-infected BCBL1 cells; experiment: Rapamycin-induced growth suppression and death of BCBL1 cells (cell counts, scanning EM); format: cell-based, human; details: 6 days, over 100 dead cells examined
Description: The effect of vFLIP on autophagy was tested in a KSHV-infected BCBL1 cell line.

[6] = biological target: T2, GST-Atg3 (human Atg3, full length) (human, UniProt Q9NT62 1-314); experiment: GST pulldown from HEK293T cells, immunoblot αFlag
T2 construct: also called GST-tagged hATG3; full-length Atg3; not shown: N-terminal GST tag

[7] = biological target: T3, GST-Atg3 193-315 (C-terminal region) (human, UniProt Q9NT62 193-314); experiment: GST pulldown with GST-Atg3, Nt and Ct, immunoblot αFlag
T3 construct: range 193-315; also called GST-Atg3 C-terminal region (Ct); not shown: N-terminal GST tag

NIH3T3 cells = experiment: GFP-LC3 autophagy assay in NIH3T3 cells expressing FLIP; format: cell-based, murine; details: ectopic expression in NIH3T3 cells; Hank's solution 4 hr or 2 μM rapamycin 3 hr
LC3-II [8] = experiment: Anti-LC3 immunoblotting of starved NIH3T3 cells expressing FLIP; format: cell-based, murine; details: starvation, Hank's solution 4 hr
Description: The arrows indicate autophagosomes.
During autophagy, an LC3 precursor (LC3-I) undergoes cleavage and lipidation to yield its processed form (LC3-II) (Mizushima et al. (2008) Nature 451:1069-1075). Immunoblotting was performed with an antibody against LC3 to further measure autophagic activity. […] Polypeptides were resolved by SDS-polyacrylamide gel electrophoresis (PAGE) and transferred to a PVDF membrane (Bio-Rad). […] The proteins were visualized by a chemiluminescence reagent (Pierce) and detected by a Fuji Phosphor Imager. […] Finally, the ability of FLIP to block autophagy in multiple cell types was evaluated.

Atg3 [9] = experiment: Co-immunoprecipitation and GST pulldown with Atg3 in HEK293T cells; format: binding, human; details: GST-Atg3 deletion mutants, GST pulldown
Source text: as §1, §2, §3, §4

T1 sequence (Q9NT62 whole entry): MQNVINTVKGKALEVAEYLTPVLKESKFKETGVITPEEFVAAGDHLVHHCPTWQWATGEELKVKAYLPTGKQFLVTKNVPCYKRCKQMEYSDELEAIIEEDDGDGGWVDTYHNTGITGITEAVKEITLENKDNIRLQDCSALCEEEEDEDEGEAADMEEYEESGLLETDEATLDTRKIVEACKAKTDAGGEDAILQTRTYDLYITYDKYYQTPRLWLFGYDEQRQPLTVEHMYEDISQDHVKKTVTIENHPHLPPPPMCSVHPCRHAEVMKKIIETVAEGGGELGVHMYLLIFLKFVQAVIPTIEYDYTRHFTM
T2 sequence (Q9NT62 whole entry): as above
T3 sequence (Q9NT62 193-314 limits assumed): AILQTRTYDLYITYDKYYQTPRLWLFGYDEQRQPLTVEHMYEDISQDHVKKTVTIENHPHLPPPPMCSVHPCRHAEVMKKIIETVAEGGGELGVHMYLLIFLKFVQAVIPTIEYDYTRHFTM

Molecule: RRRQRRKKRGY-G (RRRQRRKKRGYG) [HIV-1 TAT, reference compound]
- autophagy induction (GFP-LC3 puncta) (TREX-BCBL-Vector cells [1]): no increase in autophagy
- cell death (in words) (TREX-BCBL-Vector cells [2]): no increase in autophagy nor cell death

Molecule: RRRQRRKKRGY-G-NEMCAAAHAATQ [K-α4m]
- autophagy induction (GFP-LC3 puncta) (TREX-BCBL-Vector cells [1]): no increase in autophagy
- cell death (in words) (TREX-BCBL-Vector cells [2]): no increase in autophagy nor cell death

Molecule: EVVLFLLNVF (also: GST fusion; UniProt F5HEZ4 20-29, looked up, fragment) [DED1 α2 helix, α2 region of KSHV vFLIP amino acids 20-29; tested as mammalian GST fusion]
- Atg3 binding (Atg3 [3]): individually sufficient for Atg3 binding

Molecule: RRRQRRKKRGY-G-FVNLAAAVVE [K-α2m]
- autophagy induction (GFP-LC3 puncta) (TREX-BCBL-Vector cells [1]): no increase in autophagy
- cell death (in words) (TREX-BCBL-Vector cells [2]): no increase in autophagy nor cell death

Molecule: 5′AAGAUCCUGGACCGUGUCACC3′ [Beclin1 siRNA]
- endogenous Beclin1 expression (Beclin1): significantly reduced endogenous Beclin1 expression
- rapamycin-induced autophagic death (Beclin1; rapamycin, day 5): attenuated rapamycin-induced autophagic death

Molecule: QTFLHWVYCMEN [DED2 α4 helix]
- Atg3 binding (Atg3 [3]): individually sufficient for Atg3 binding

Molecule: RRRQRRKKRGY-G-FVNLLFLVVE (RRRQRRKKRGYGFVNLLFLVVE; not fully specified (some residues); also: retro-inverso D-amino acids) [K-α2]
- phosphorylation of p70S6K (mTor kinase activity): marginal reduction
- phosphorylation of ribosomal protein S6 (mTor kinase activity): remained unaffected
- LC3-II level (LC3-II [4]): high amount of LC3-II

Molecule: COC(=O)CC(NC(=O)C(C)NC(=O)C(NC(=O)OCc1ccccc1)C(C)C)C(=O)CF (stereo not drawn) [zVAD, benzyloxycarbonylvalyl-alanyl-aspartic acid (O-methyl)-fluoro-methylketone] (Cbz-Val-Ala-Asp(OMe)-CH2F; configuration not given here)
- growth suppression and death (BCBL1 cells): effectively induced growth suppression and death of BCBL1 cells

Molecule: RRRQRRKKRGY-G-NEMCYVWHLFTQ (RRRQRRKKRGYGNEMCYVWHLFTQ; not fully specified (some residues); also: retro-inverso D-amino acids) [K-α4]
- phosphorylation of p70S6K (mTor kinase activity): marginal reduction
- phosphorylation of ribosomal protein S6 (mTor kinase activity): remained unaffected
- LC3-II level (LC3-II [4]): high amount of LC3-II

Molecule: CO[C@H]1C[C@@H]2CC[C@@H](C)[C@@](O)(O2)C(=O)C(=O)N2CCCC[C@H]2C(=O)O[C@H]([C@H](C)C[C@@H]2CC[C@@H](O)[C@H](OC)C2)CC(=O)[C@H](C)/C=C(\C)[C@@H](O)[C@@H](OC)C(=O)[C@H](C)C[C@H](C)/C=C/C=C/C=C/1C [rapamycin]
- dead cells with characteristics of autophagic death (EM) [5]: approximately 60%

B1: Flag-KSHV vFLIP DED2 (other)
chain: FSPYQLTVLHVDGELCARDIRSLIFLSKDTIGSRSTPQTFLHWVYCMENLDLLGPTDVDALMSMLRSLSRVDLQRQVQTLMGLHLSGPSHSQHYRHTP
notes: also called DED2 of KSHV vFLIP
- binding result [6]: binds

B2: Flag-HVS vFLIP (other)
chain: MDLKTTVLHITDSFTEEEMYCLLFLINGCIPRNCNAVKISDLIIETLSKSTQWDICLTQCLYVLRKIELLLNLFQVTKEDVKQSFFTQLQLETHVLTLVNVNNNLTAKDEKRLCFILDQFFPRNVVASSVILCVFSNMLCEMPVLECLCQLKKCLKQIGRSDLAKTV
- binding result [6]: binds
- binding result [7]: binds

B3: HVS vFLIP: viral FLIP of Herpesvirus saimiri (protein)
chain: MDLKTTVLHITDSFTEEEMYCLLFLINGCIPRNCNAVKISDLIIETLSKSTQWDICLTQCLYVLRKIELLLNLFQVTKEDVKQSFFTQLQLETHVLTLVNVNNNLTAKDEKRLCFILDQFFPRNVVASSVILCVFSNMLCEMPVLECLCQLKKCLKQIGRSDLAKTV
modifications: Saimiriine herpesvirus 2
notes: viral FLIP of Herpesvirus saimiri
- suppression of starvation- and rapamycin-induced autophagy (GFP-LC3 puncta) (NIH3T3 cells): strongly suppressed starvation- and rapamycin-induced autophagy; also recorded: had anti-autophagic activity
- processed LC3-II (LC3-II [8]): little or no processed LC3-II
- Atg3 binding (Atg3 [3]): interacted with Atg3 as efficiently as KSHV-vFLIP
- Atg3 regions bound (Atg3 deletion mutants) (Atg3 [9]): Atg3 binding patterns similar to KSHV vFLIP

B4: Flag-KSHV vFLIP DED1 (other)
chain: MATYEVLCEVARKLGTDDREVVLFLLNVFIPQPTLAQLIGALRALKEEGRLTFPLLAECLFRAGRRDLLRDLLHLDPRFLERHLAGTMSY
notes: also called DED1 of KSHV vFLIP
- binding result [6]: binds
